Biological target: T1, dopamine D-2 receptor (D2 Spiper) (Rattus norvegicus, UniProt P61169)
T1 construct: homogenized limbic brain tissue is incubated with; from tissue; host or cells: limbic brain tissue homogenate
Assay: 3H-spiroperidol (Spiper.) binding in homogenized limbic brain tissue, affinity for the dopamine D-2 receptor
Protocol: High affinity for the dopamine D-2 receptor was established by the standard experimental test procedure of Fields, et al., Brain Res., 136, 578 (1977) and Yamamura et al., eds., Neurotransmitter Receptor Binding, Raven Press, New York (1978) wherein homogenized limbic brain tissue is incubated with ^3 H-spiroperidol (Spiper.) and various concentrations of test compound, filtered and washed and shaken with Hydrofluor scintillation cocktail (National Diagnostics) and counted in a Packard 460 CD scintillation counter.

T1 sequence (P61169 whole entry): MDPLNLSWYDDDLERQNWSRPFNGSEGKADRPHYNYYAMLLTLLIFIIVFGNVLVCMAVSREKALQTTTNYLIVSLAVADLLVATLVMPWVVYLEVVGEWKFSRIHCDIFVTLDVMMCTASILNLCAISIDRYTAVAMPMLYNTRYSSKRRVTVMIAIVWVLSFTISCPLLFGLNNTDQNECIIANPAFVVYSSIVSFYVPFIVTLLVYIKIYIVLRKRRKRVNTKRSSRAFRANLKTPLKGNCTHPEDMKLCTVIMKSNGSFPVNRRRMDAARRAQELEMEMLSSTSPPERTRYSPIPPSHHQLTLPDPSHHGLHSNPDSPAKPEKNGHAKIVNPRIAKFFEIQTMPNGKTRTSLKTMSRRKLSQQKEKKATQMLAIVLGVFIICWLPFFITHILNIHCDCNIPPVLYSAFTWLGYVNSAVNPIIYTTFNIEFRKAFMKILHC

Row | SMILES | IC50 [nM]
1 | O=C1Cc2c(cccc2OCCNCc2ccccc2)N1 [Example 1, 4-(2-Benzylaminoethoxy)-1,3-dihydro-indol-2-one] | 145
2 | CNCCOc1cccc2c1CC(=O)N2 [Example 2, 4-(2-Methylamino-ethoxy)-1,3-dihydro-indol-2-one] | 918
3 | NCCOc1cccc2c1CC(=O)N2 [Example 3, 4-(2-Amino-ethoxy)-1,3-dihydro-indol-2-one] | 3420
4 | O=C1Cc2c(OCCNCc3ccc(F)cc3)ccc(Cl)c2N1 [Example 4] | 176
5 | O=C1Cc2c(OCCNCc3ccc(Cl)cc3)ccc(Cl)c2N1 [Example 5] | 51.9
6 | Cc1ccc(CNCCOc2ccc(Cl)c3c2CC(=O)N3)cc1 [Example 6] | 37.5
7 | CN(CCOc1ccc(Cl)c2c1CC(=O)N2)Cc1ccccc1 [Example 7, 4-[2-(N-Benzyl-N-methyl-amino)-ethoxy]-7-chloro-1,3dihydro-indol-2-one] | 231
8 | CCCCNCCOc1ccc(Cl)c2c1CC(=O)N2 [Example 8, 4-(2-Butylamino-ethoxy)-7-chloro-1,3-dihydro-indol-2-one] | 144
9 | O=C1Cc2c(OCCN3CCc4ccccc4C3)ccc(Cl)c2N1 [Example 9, 7-Chloro-4-[2-(3,4-dihydro-1H-isoguinolin-2-yl)-ethoxy]-1,3-dihydro-indol-2-one] | 81.4
10 | O=C1Cc2c(cccc2OCCNCCCCc2ccccc2)N1 [Example 13] | 25
11 | O=C1Cc2c(OCCNCc3ccccc3)ccc(Cl)c2N1 [Example 14, 4-(2-Benzylamino-ethoxy)-7-chloro-1,3-dihydro-indol-2-one] | 36
12 | O=C1Cc2c(OCCNCc3ccccc3)ccc(F)c2N1 [Example 15, 4-(2-Benzylamino-ethoxy)-7-fluoro-1,3-dihydro-indol-2-one] | 68.7
13 | O=C1Cc2c(OCCNCC3CCCCC3)ccc(F)c2N1 [Example 16, 4-[2-(Cyclohexylmethyl-amino)-ethoxy)-7-fluoro-1,3-dihydro-indol-2one] | 99.4
14 | CN(CCOc1cccc2c1CC(=O)N2)Cc1ccccc1 [Example 25, 4-[2-(Benzyl-methyl-amino)-ethoxy]-1,3-dihydro-indol-2-one] | 645
15 | CN(CCCC(=O)c1ccc(F)cc1)CCOc1cccc2c1CC(=O)N2 [Example 27, 4-(2-{[4-(4-Fluoro-phenyl)-4-oxo-butyl]-methyl-amino}-ethoxy)-1,3-dihydro-indol-2-one] | 346

From patent publication US5817690A, “4-aminoethoxy indolone derivatives” (American Home Products Corporation, priority 1997, dated 1998)
